In ChEMBL document CHEMBL1201862, “PubChem BioAssay data set” (2004):
Active and inactive are the calls of the source.

What was measured:
[1] = HEK293T cytotoxicity, dose response, cytotoxicity control for miR-122 modulator project, cell-based, inhibitor set, cherry-pick, set 2 (AID 720697); format: functional
[2] = HEK293T cytotoxicity, dose response, cytotoxicity control for miR-122 modulator project, cell-based, activator set, cherry-pick (AID 720690); format: functional;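 note: HEK293T human cells scored for general mammalian cytotoxicity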
[3] = biological target: Caspase-6 (Homo sapiens, UniProt P55212); experiment: human caspase-6 inhibitors, dose response, biochemical, VEID-R110 fluorescence, cherry-pick (AID 720632)
[4] = system: A549; experiment: A549 cell toxicity, dose response, cytotoxicity control, plate reader, cherry-pick samples (AID 687028); format: functional, cell-based; settings: Homo sapiens
[5] = MITF Orthogonal Assay: SK-MEL-5 CTG Assay Measured in Cell-Based System Using Plate Reader - 2084-02_Inhibitor_Dose_DryPowder_Activity_Set7.; format: functional
[6] = MITF: Counter assay: A375 proliferation Measured in Cell-Based System Using Plate Reader - 2084-03_Inhibitor_Dose_DryPowder_Activity_Set8.; format: functional; settings: A-375
[7] = TRPM1 promoter luciferase reporter signal decrease, dose response, MITF inhibitor project, cell-based, SK-MEL-5, dry powder, set 8 (AID 624430); format: functional
[8] = biological target: fMet-Leu-Phe receptor (Homo sapiens, UniProt P21462); experiment: FPR ligands, dose response (AID 519); format: functional
[9] = biological target: Albumin (Bos taurus, UniProt P02769); experiment: Counterscreen for inhibitors of T-cell receptor (TCR)-CD3 interaction: Fluorescence-based biochemical high throughput dose response assay to identify inhibitors of T-cell receptor (TCR)-CD3 interaction using a TAMRA-labeled BSA probe.; format: functional
[10] = Shn3 3'UTR reporter inhibitors, dose response, cell-based, Clone20 osteoblasts, firefly luciferase, cherry-picked (AID 624132); format: functional;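 note: firefly luciferase luminescence from reporter carrying the Shn3 3'UTR in osteoblasts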
[11] = HepG2 cell cytotoxicity, dose response, cytotoxicity control for Shn3 inhibitor project, CellTiter-Glo, cherry-picked (AID 624134); format: functional, cell-based
[12] = control 3'UTR Renilla luciferase suppression, dose response, counter-screen for Shn3 inhibitor project, cell-based, Clone20-Shn3RL, cherry-picked (AID 624133); format: functional
[13] = reduction of Shn3 3'UTR firefly luciferase signal, dose response, Schnurri-3 inhibitor project, cell-based, Clone20 osteoblasts, cherry-pick, set 2 (AID 720490); format: functional;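 note: actives lower the luminescence signal as inhibitors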
[14] = biological target: Major prion protein (Homo sapiens, UniProt P04156); format: functional, cell-based
[15] = cells
[16] = biological target: T1, Corticotropin-releasing factor receptor 2/Corticotropin-releasing factor-binding protein (Homo sapiens, UniProt P24387+Q13324); experiment: activators of CRF receptor 2 with binding protein – uHTS hits, confirmation (AID 602473); format: functional; settings: read-out: EC50_Mean
T1 sequence (Q13324 whole entry): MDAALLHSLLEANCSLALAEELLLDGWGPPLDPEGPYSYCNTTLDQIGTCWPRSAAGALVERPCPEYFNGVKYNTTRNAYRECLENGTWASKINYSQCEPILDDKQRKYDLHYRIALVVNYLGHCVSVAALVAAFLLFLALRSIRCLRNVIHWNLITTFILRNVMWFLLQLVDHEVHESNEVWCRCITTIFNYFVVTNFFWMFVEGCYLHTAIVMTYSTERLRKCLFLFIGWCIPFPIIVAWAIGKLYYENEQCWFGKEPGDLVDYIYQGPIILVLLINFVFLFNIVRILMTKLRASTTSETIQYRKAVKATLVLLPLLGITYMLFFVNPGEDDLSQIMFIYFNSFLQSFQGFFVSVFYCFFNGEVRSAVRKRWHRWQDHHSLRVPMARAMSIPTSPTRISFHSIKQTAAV
T1 sequence (P24387 whole entry): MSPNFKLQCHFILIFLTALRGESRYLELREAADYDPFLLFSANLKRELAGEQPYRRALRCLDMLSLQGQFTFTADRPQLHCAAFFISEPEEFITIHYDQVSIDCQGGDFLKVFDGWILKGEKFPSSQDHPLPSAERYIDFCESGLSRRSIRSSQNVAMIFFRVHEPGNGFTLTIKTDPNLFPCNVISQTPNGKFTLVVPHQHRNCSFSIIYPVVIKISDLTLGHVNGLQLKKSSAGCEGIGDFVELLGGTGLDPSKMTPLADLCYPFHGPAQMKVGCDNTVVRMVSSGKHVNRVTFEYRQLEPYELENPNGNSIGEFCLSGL

[17] = biological target: T2, Small ubiquitin-related modifier 1 (Homo sapiens, UniProt P63165); experiment: inhibitors of SUMO1 peptide binding, dose response, biochemical, fluorescence polarization, uHTS hits (AID 624382); format: functional; settings: read-out: IC50_Mean
[18] = biological target: T2, Small ubiquitin-related modifier 1; experiment: inhibitors of SUMO1 partner interactions, dose response, biochemical, FRET (AID 624383); format: functional; settings: read-out: IC50_Mean
[19] = biological target: Mu-type opioid receptor (Homo sapiens, UniProt P35372); format: functional, cell-based;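 note: U2OS cells with beta-arrestin recruitment to OPRM1 by beta-gal complementation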
[20] = biological target: 5-hydroxytryptamine receptor 2A (Mus musculus, UniProt P35363); format: functional, cell-based;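 note: CHO-K1 cells with tagged receptor and beta-arrestin; agonist potency measured as compound-induced activation of the receptor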
[21] = biological target: T3, Heat shock factor protein 1 (Mus musculus, UniProt P38532); experiment: HSF1 potentiators in luciferase reporter cells, confirmation, cell-based, NIH3T3, luminescence, dose retest (AID 435004); format: functional;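 note: stress induced by proteasome inhibitor MG132 added 30 min after compound; luciferase reporter driven by HSF1 response element in NIH3T3 cells; actives raise luminescence as potentiators of the MG132 stress response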
T3 sequence (P38532 whole entry): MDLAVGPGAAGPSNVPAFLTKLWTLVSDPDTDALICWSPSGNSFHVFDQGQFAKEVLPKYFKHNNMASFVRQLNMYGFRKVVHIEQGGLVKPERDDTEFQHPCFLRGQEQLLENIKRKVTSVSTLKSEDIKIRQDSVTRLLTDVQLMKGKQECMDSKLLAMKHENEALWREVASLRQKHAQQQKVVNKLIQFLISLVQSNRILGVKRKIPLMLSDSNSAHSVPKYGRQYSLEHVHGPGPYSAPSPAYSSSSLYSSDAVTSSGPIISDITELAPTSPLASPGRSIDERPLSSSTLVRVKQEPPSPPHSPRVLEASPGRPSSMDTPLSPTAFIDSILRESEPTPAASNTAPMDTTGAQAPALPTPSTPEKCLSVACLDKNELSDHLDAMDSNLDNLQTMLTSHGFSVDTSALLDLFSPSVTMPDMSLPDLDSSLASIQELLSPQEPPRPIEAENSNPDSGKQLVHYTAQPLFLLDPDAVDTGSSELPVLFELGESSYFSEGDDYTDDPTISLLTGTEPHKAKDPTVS

[22] = biological target: Paired box protein Pax-8 (Homo sapiens, UniProt Q06710); experiment: inhibitors of PAX8-driven TPO luciferase reporter, dose response, RMG-I cells, cherry-pick (AID 687027); format: functional, cell-based;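 note: luciferase reporter driven by Pax8 target thyroperoxidase promoter measured by SteadyGlo luminescence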
[23] = IGROV1 ovarian cancer cell cytotoxicity, dose response, PAX8 inhibitor project, plate reader, dry powder samples (AID 743043); format: functional, cell-based; settings: IGROV-1
[24] = biological target: Cytochrome P450 2C19 (Homo sapiens, UniProt P33261); experiment: Cytochrome panel assay with activity outcomes. Panel member name: p450-cyp2c19 Compounds with AC50 equal or less than 10 uM are considered active; format: functional; settings: read-out: AC50
[25] = biological target: Large T antigen (Simian virus 40, UniProt P03070); format: functional, Betapolyomavirus macacae;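 note: Confirmatory-stage PubChem screen for compounds that inhibit SV40 T antigen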
[26] = biological target: FAD-linked sulfhydryl oxidase ALR (Homo sapiens, UniProt P55789); experiment: inhibitors of human ALR sulfhydryl oxidase, dose response, biochemical, H2O2 detection, luminescence, cherry-pick (AID 493248)
[27] = biological target: T4, Rac GTPase-activating protein 1 (Homo sapiens, UniProt Q9H0H5); experiment: MgcRacGAP GTPase-activating activity inhibitors, confirmation, biochemical, ADP Hunter fluorescence, primary and confirmatory (AID 624330); format: functional
T4 sequence (Q9H0H5 whole entry): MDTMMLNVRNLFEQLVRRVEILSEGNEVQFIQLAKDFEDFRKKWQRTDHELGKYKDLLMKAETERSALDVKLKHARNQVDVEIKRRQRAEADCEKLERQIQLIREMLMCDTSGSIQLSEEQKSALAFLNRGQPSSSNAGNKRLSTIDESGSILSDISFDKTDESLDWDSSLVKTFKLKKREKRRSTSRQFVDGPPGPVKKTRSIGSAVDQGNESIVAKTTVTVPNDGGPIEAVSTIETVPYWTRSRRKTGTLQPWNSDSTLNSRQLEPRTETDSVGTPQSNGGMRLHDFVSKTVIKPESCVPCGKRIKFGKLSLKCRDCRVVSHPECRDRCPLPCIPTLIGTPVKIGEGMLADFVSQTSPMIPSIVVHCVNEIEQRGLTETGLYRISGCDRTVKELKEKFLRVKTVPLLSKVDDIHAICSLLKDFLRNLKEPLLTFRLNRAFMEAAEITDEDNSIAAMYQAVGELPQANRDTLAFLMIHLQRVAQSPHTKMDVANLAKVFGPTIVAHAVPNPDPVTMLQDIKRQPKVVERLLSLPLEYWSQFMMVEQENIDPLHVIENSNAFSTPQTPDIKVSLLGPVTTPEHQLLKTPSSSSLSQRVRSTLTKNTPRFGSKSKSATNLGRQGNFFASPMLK

[28] = HEK293 cell viability, dose response, counter-screen for EBV LMP1 inhibitor project, dry powder, set 2 (AID 624374); format: functional
[29] = biological target: SWI/SNF-related matrix-associated actin-dependent regulator of chromatin subfamily A member 2 (Homo sapiens, UniProt P51531); experiment: Luminescence-based cell-based high throughput dose response assay to identify activators of the function of SWI/SNF related, matrix associated, actin dependent regulator of chromatin, subfamily a, member 2 (SMARCA2, BRM).; format: functional
[30] = Counterscreen for activators of the function of SWI/SNF related, matrix associated, actin dependent regulator of chromatin, subfamily a, member 2 (SMARCA2, BRM): Luminescence-based cell-based high throughput dose response assay to identify non-selective compounds using the VP16 reporter assay.; format: functional

## C[C@H](CO)N1C[C@H](C)[C@H](CN(C)Cc2ccccc2)Oc2cc(/C=C/c3ccccc3)ccc2S1(=O)=O
[1]
  AC50: 34.5 µM (active)
[2]
  AC50: 22.7 µM (active)

## CN1C(=O)c2cc(NC(=O)C3CC3)ccc2OC[C@H]2O[C@@H](CC(=O)O)CC[C@@H]21
[3]
  AC50: 23.1 µM (active)

## CC(C)(C)NC(=O)C(c1cccc2ccccc12)n1c(=O)c(-c2ccccc2)nc2ccccc21 (centres undefined)
[4]
  AC50: 8.91 µM (active)

## O=C1C(Nc2ccc(F)cc2F)=C(N2CCCCC2)C(=O)c2ccccc21
[5]
  AC50: 3.64 µM (active)
[6]
  AC50: 21.8 µM (active)
[7]
  AC50: 0.931 µM (active)

## COc1ccc(NC(=O)C2C(=O)NC3(C)CC2c2ccccc2O3)cc1 (centres undefined)
[8]
  Ki: > 66.7 µM (inactive)

## Nc1ccc([N+](=O)[O-])cc1C(=O)NNC(=O)c1ccco1
[9]
  IC50: > 94.1 µM (inactive)

## Cc1ccccc1OCCOC(=O)c1cc(S(=O)(=O)N2CCCCC2)ccc1N1CCOCC1
[10]
  AC50: 3.79 µM (active)
[11]
  AC50: > 70 µM (inactive)
[12]
  AC50: > 70 µM (inactive)
[13]
  AC50: 4.28 µM (active)

## COc1cccc(N2CC(=O)C(c3nc4ccccc4s3)=C2N)c1
[14]
  IC50: 5.11 µM (active)
[15]
  IC50: > 138 µM (inactive)

## CCN1CCN(C2=C(Nc3ccc(OC)cc3)C(=O)c3ccccc3C2=O)CC1
[5]
  AC50: 12.2 µM (active)
[6]
  AC50: > 70 µM (inactive)
[7]
  AC50: 6.87 µM (active)

## COC(=O)c1ccc2c(c1)C(=O)/C(=C/c1ccc(O)cc1)O2
[16]
  EC50: > 53 µM (inactive)
[17]
  IC50: > 66.6 µM (inactive)
[18]
  IC50: 7.4 µM (active)

## COCOCCn1cc(CN2CCS(=O)(=O)N(Cc3ccc(-c4ccc(Cl)c(Cl)c4)cc3)C(C(C)C)C2=O)nn1 (centres undefined)
[10]
  AC50: 1.35 µM (active)
[11]
  AC50: > 70 µM (inactive)
[12]
  AC50: 7.09 µM (active)
[13]
  AC50: 1.86 µM (active)

## Cc1ccsc1CN1CCN(c2ccccn2)CC1
[19]
  EC50: 92.5 µM (inactive)
[20]
  EC50: 0.282 µM (active)

## CC(CCc1ccccc1)NC(=O)CN1CCc2ccccc2C1 (centres undefined)
[21]
  EC50: > 260 µM (inactive)
[19]
  EC50: 92.5 µM (inactive)
[20]
  EC50: 76.1 µM (inactive)

## C[C@@H]1CN([C@@H](C)CO)C(=O)Cc2cc(NS(=O)(=O)c3ccc(Cl)cc3)ccc2O[C@H]1CN(C)Cc1ccc(Cl)c(Cl)c1
[22]
  AC50: 4.26 µM (active)
[23]
  AC50: 38.5 µM (active)

## COc1cc(C2C(C(=O)c3ccc(C)o3)=C(O)C(=O)N2CCc2ccccc2)ccc1O (centres undefined)
[24]
  AC50: 11.2 µM (inconclusive)
[8]
  Ki: 19.7 µM (inactive)

## O=C(NCc1ccc2c(c1)OCO2)C(=O)NCC1OCCCN1S(=O)(=O)c1ccccc1 (centres undefined)
[4]
  AC50: 27.9 µM (active)

## Oc1ccc(/C=N/Nc2ncnc3c2ncn3Cc2ccccc2)cc1O
[25]
  IC50: 3.87 µM (active)
[26]
  AC50: 2.19 µM (active)
[27]
  IC50: 23 µM (active)
[9]
  IC50: > 94.1 µM (inactive)

## COc1ccc(CCNC(=O)COC(=O)c2ccc([N+](=O)[O-])o2)cc1
[3]
  AC50: 24.1 µM (active)

## O=C(Cc1ccccn1)NCC[C@@H]1CC[C@@H](NC(=O)Nc2ccc(Cl)cc2)[C@H](CO)O1
[28]
  AbsAC35: 175.41 µM

## Cc1cccc(NC(=O)c2ccc([N+](=O)[O-])o2)n1
[24]
  AC50: 20 µM (inconclusive)
[29]
  EC50: > 91.1 µM (inactive)
[30]
  EC50: > 91.1 µM (inactive)
